From patent US20130303507A1 (Novartis AG, priority 2011, published 2013)
pIC50: −log10 of the molar value.

These compounds were tested against Cdk9/cyclinT1 (Homo sapiens, UniProt P50750) (assay: Cdk9/cyclinT1 IMAP protocol (fluorescence polarization)). Details: IC-50, CDK9; lower limit of assay 0.0005 micromolar.
Chain of Cdk9/cyclinT1 (P50750 whole entry): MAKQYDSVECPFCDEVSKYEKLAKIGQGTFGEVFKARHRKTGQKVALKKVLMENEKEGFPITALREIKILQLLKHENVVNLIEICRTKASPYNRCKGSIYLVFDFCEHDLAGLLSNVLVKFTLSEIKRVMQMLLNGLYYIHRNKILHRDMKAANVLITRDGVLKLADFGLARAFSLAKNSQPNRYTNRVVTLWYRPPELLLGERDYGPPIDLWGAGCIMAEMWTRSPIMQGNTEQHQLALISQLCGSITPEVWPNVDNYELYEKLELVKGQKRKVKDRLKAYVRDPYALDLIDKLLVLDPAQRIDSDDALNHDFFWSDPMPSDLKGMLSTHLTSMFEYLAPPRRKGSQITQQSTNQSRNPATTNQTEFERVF
Chain of Cdk9/cyclinT1 (O60563 whole entry partner): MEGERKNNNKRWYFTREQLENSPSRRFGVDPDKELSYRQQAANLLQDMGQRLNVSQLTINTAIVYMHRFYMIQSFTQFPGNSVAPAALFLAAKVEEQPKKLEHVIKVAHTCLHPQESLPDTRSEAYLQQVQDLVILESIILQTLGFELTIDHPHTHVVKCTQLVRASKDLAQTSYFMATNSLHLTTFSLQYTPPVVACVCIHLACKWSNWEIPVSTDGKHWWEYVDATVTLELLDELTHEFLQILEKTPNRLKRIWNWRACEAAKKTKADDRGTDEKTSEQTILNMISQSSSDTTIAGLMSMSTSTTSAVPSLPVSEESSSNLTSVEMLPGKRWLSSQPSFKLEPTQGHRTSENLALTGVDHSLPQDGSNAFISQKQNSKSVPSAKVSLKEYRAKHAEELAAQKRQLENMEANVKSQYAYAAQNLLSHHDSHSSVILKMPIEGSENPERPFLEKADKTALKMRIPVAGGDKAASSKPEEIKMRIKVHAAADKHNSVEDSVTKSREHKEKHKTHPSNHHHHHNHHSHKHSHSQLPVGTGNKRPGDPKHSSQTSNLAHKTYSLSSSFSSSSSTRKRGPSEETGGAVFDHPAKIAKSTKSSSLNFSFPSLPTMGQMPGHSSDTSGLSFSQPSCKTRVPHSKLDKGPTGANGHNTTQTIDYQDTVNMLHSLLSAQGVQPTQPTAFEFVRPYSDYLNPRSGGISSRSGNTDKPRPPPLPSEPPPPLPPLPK

| SMILES | pIC50 |
| --- | --- |
| CO[C@@H]1CC[C@H](Nc2cc(-c3cccc(NCC4(C#N)CCOCC4)n3)c(Cl)cn2)C[C@H]1N [Compound 438, 4-(((2′-(((1S,3R,4R)-3-amino-4-methoxycyclohexyl)amino)-5′-chloro-[2,4′-bipyridin]-6-yl)amino)methyl)tetrahydro-2H-pyran-4-carbonitrile] | 7.70 |
| CO[C@H]1C[C@@H](Nc2cc(-c3cccc(NCC4(C#N)CCOCC4)n3)c(Cl)cn2)CC[C@@H]1N [Compound 439, 4-(((2′-(((1S,3S,4S)-4-amino-3-methoxycyclohexyl)amino)-5′-chloro-[2,4′-bipyridin]-6-yl)amino)methyl)tetrahydro-2H-pyran-4-carbonitrile] | 8.00 |
| N#CC1(CNc2cccc(-c3cc(NCC4CCOCC4)ncc3Cl)n2)CCOCC1 [Compound 441, 4-(((5′-chloro-2′-(((tetrahydro-2H-pyran-4-yl)methyl)amino)-[2,4′-bipyridin]-6-yl)amino)methyl)tetrahydro-2H-pyran-4-carbonitrile] | 8.52 |
| N#CC1(CNc2cccc(-c3cc(NC4CCOCC4)ncc3Cl)n2)CCOCC1 [Compound 443, 4-(((5′-chloro-2′-((tetrahydro-2H-pyran-4-yl)amino)-[2,4′-bipyridin]-6-yl)amino)methyl)tetrahydro-2H-pyran-4-carbonitrile] | 8.77 |
| N#CCCN[C@H]1CC[C@H](Nc2cc(-c3cccc(NCC4CCOCC4)n3)c(Cl)cn2)CC1 [Compound 444, 3-((trans-4-((5′-chloro-6-(((tetrahydro-2H-pyran-4-yl)methyl)amino)-[2,4′-bipyridin]-2′-yl)amino)cyclohexyl)amino) propanenitrile] | 8.62 |
| COC[C@@H](C)N[C@H]1CC[C@H](Nc2cc(-c3cccc(NCCC#N)n3)c(Cl)cn2)CC1 [Compound 445, 3-((5′-chloro-2′-((trans-4-(((R)-1-methoxypropan-2-yl)amino)cyclohexyl)amino)-[2,4′-bipyridin]-6-yl)amino)propanenitrile] | 8.68 |
| COC[C@]1(O)CC[C@@H](Nc2cc(-c3cccc(NCC4CCOCC4)n3)c(Cl)cn2)CC1 [Compound 447, Cis-4-((5′-chloro-6-(((tetrahydro-2H-pyran-4-yl)methyl)amino)-[2,4′-bipyridin]-2′-yl)amino)-1-(methoxymethyl)cyclohexanol] | 7.38 |
| COC[C@]1(O)CC[C@H](Nc2cc(-c3cccc(NCC4(C#N)CCOCC4)n3)c(Cl)cn2)CC1 [Compound 449, 4-(((5′-chloro-2′-((trans-4-hydroxy-4-(methoxymethyl)cyclohexyl)amino)-[2,4′-bipyridin]-6-yl)amino)methyl)tetrahydro-2H-pyran-4-carbonitrile] | 8.26 |
| COC[C@H](C)N[C@H]1CC[C@H](Nc2cc(-c3cccc(NCC4(O)CCOCC4)n3)c(Cl)cn2)CC1 [Compound 451, 4-(((5′-chloro-2′-((trans-4-(((S)-1-methoxypropan-2-yl)amino)cyclohexyl)amino)-[2,4′-bipyridin]-6-yl)amino)methyl)tetrahydro-2H-pyran-4-ol] | 8.15 |
| COCC(C)(C)N[C@H]1CC[C@H](Nc2cc(-c3cccc(NCC4(C#N)CCOCC4)n3)c(Cl)cn2)CC1 [Compound 454, 4-(((5′-chloro-2′-((trans-4-((1-methoxy-2-methylpropan-2-yl)amino)cyclohexyl)amino)-[2,4′-bipyridin]-6-yl)amino)methyl)tetrahydro-2H-pyran-4-carbonitrile] | 8.70 |
| COC[C@H](C)N[C@H]1CC[C@H](Nc2cc(-c3ccc(F)c(NCC4CCOC(C)(C)C4)n3)c(Cl)cn2)CC1 (stereo partly drawn) [Compound 457, 5′-chloro-N6-((2,2-dimethyltetrahydro-2H-pyran-4-yl)methyl)-5-fluoro-N2′-(trans-4-(((S)-1-methoxypropan-2-yl)amino)cyclohexyl)-[2,4′-bipyridine]-2′,6-diamine] | 8.80 |
| COC[C@H](C)N[C@H]1CC[C@H](Nc2cc(-c3ccc(F)c(NC[C@H]4CCOC(C)(C)C4)n3)c(Cl)cn2)CC1 [Compound 463, 5′-chloro-N6-(((S)-2,2-dimethyltetrahydro-2H-pyran-4-yl)methyl)-5-fluoro-N2′-(trans-4-(((S)-1-methoxypropan-2-yl)amino)cyclohexyl)-[2,4′-bipyridine]-2′,6-diamine] | 8.72 |
| CC1(CNc2nc(-c3cc(N[C@H]4CC[C@@H](N)CC4)ncc3Cl)ccc2F)CCOCC1 [Compound 466] | 8.41 |

These reach a higher pIC50. Values come first.

| pIC50 | SMILES |
| --- | --- |
| ≥ 9.30 | N#CC1(CNc2cccc(-c3cc(N[C@H]4CC[C@H](N5CCCC5)CC4)ncc3Cl)n2)CCOCC1 [Compound 434, 4-(((5′-chloro-2′-((trans-4-(pyrrolidin-1-yl)cydohexyl)amino)-[2,4′-bipyridin]-6-yl)amino)methyl)tetrahydro-2H-pyran-4-carbonitrile] |
| 9.22 | N#CC1(CNc2cccc(-c3cc(N[C@H]4CC[C@H](N5CCOCC5)CC4)ncc3Cl)n2)CCOCC1 [Compound 442, 4-(((5′-chloro-2′-((trans-4-morpholinocyclohexyl)amino)-[2,4′-bipyridin]-6-yl)amino)methyl)tetrahydro-2H-pyran-4-carbonitrile] |
| > 9.30 | COCCN(CCOC)[C@H]1CC[C@H](Nc2cc(-c3cccc(NCC4(C#N)CCOCC4)n3)c(Cl)cn2)CC1 [Compound 446, 4-(((2′-((trans-4-(bis(2-methoxyethyl)amino)cyclohexyl)amino)-5′-chloro-[2,4′-bipyridin]-6-yl)amino)methyl)tetrahydro-2H-pyran-4-carbonitrile] |
| 8.96 | COC[C@]1(O)CC[C@@H](Nc2cc(-c3cccc(NCC4(C#N)CCOCC4)n3)c(Cl)cn2)CC1 [Compound 448, 4-(((5′-chloro-2′-((cis-4-hydroxy-4-(methoxymethyl)cyclohexyl)amino)-[2,4′-bipyridin]-6-yl)amino)methyl)tetrahydro-2H-pyran-4-carbonitrile] |
| 8.82 | N[C@H]1CC[C@H](Nc2cc(-c3cccc(NCC4(O)CCOCC4)n3)c(Cl)cn2)CC1 [Compound 450, 4-(((2′-((trans-4-aminocyclohexyl)amino)-5′-chloro-[2,4′-bipyridin]-6-yl)amino)methyl)tetrahydro-2H-pyran-4-ol] |
| 9.15 | CCOC(=O)C(C)(C)N[C@H]1CC[C@H](Nc2cc(-c3cccc(NCC4(C#N)CCOCC4)n3)c(Cl)cn2)CC1 [Compound 452, ethyl 2-((trans-4-((5′-chloro-6-(((4-cyanotetrahydro-2H-pyran-4-yl)methyl)amino)-[2,4′-bipyridin]-2′-yl)amino)cyclohexyl)amino)-2-methylpropanoate] |
| > 9.30 | CC(C)(CO)N[C@H]1CC[C@H](Nc2cc(-c3cccc(NCC4(C#N)CCOCC4)n3)c(Cl)cn2)CC1 [Compound 453, 4-(((5′-chloro-2′-((trans-4-((1-hydroxy-2-methylpropan-2-yl)amino)cyclohexyl)amino)-[2,4′-bipyridin]-6-yl)amino)methyl)tetrahydro-2H-pyran-4-carbonitrile] |
| 9.10 | COCCNC(=O)[C@H]1CC[C@H](Nc2cc(-c3cccc(NCC4(C#N)CCOCC4)n3)c(Cl)cn2)CC1 [Compound 455, trans-4-((5′-chloro-6-(((4-cyanotetrahydro-2H-pyran-4-yl)methyl)amino)-[2,4′-bipyridin]-2′-yl)amino)-N-(2-methoxyethyl)cyclohexane-carboxamide] |
| > 9.30 | COC[C@H](C)N[C@H]1CC[C@H](Nc2cc(-c3ccc(F)c(NCC4(C#N)CCOCC4)n3)c(Cl)cn2)CC1 [Compound 458, 4-(((5′-chloro-5-fluoro-2′-((trans-4-(((S)-1-methoxypropan-2-yl)amino)cyclohexyl)amino)-[2,4′-bipyridin]-6-yl)amino)methyl)tetrahydro-2H-pyran-4-carbonitrile] |
| ≥ 9.30 | COC[C@H](C)N[C@H]1CC[C@H](Nc2cc(-c3cccc(NCC4(C#N)CCOCC4)n3)c(Cl)cn2)CC1 [Compound 459, 4-(((5′-chloro-2′-((trans-4-(((S)-1-methoxypropan-2-yl)amino)cyclohexyl)amino)-[2,4′-bipyridin]-6-yl)amino)methyl)tetrahydro-2H-pyran-4-carbonitrile] |
| 8.92 | COC[C@H](C)N[C@H]1CC[C@H](Nc2cc(-c3ccc(F)c(NC[C@@H]4CCOC(C)(C)C4)n3)c(Cl)cn2)CC1 [Compound 462, 5′-chloro-N6-(((R)-2,2-dimethyltetrahydro-2H-pyran-4-yl)methyl)-5-fluoro-N2′-(trans-4-(((S)-1-methoxypropan-2-yl)amino)cyclohexyl)-[2,4′-bipyridine]-2′,6-diamine] |
| > 9.30 | N#CC1(CNc2cccc(-c3cc(N[C@H]4CC[C@H](N)CC4)ncc3Cl)n2)CCOCC1 [Compound 464, 4-(((2′-((trans-4-aminocyclohexyl)amino)-5′-chloro-[2,4′-bipyridin]-6-yl)amino)methyl)tetrahydro-2H-pyran-4-carbonitrile] |
| 8.92 | N#CC1(CNc2cccc(-c3cc(N[C@H]4CC[C@@H](N)CC4)ncc3Cl)n2)CCOCC1 [Compound 465, 4-(((2′-((cis-4-aminocyclohexyl)amino)-5′-chloro-[2,4′-bipyridin]-6-yl)amino)methyl)tetrahydro-2H-pyran-4-carbonitrile] |
| > 9.30 | N#CC1(CNc2cccc(-c3cc(N[C@H]4CC[C@H](NC5CCOC5)CC4)ncc3Cl)n2)CCOCC1 (stereo partly drawn) [Compound 467, 4-(((5′-chloro-2′-((trans-4-((tetrahydrofuran-3-yl)amino)cyclohexyl)amino)-[2,4′-bipyridin]-6-yl)amino)methyl)tetrahydro-2H-pyran-4-carbonitrile] |
| > 9.30 | N#CC1(CNc2cccc(-c3cc(N[C@H]4CC[C@H](NCC5CCCO5)CC4)ncc3Cl)n2)CCOCC1 (stereo partly drawn) [Compound 468, 4-(((5′-chloro-2′-((trans-4-(((tetrahydrofuran-2-yl)methyl)amino)cyclohexyl)amino)-[2,4′-bipyridin]-6-yl)amino)methyl)tetrahydro-2H-pyran-4-carbonitrile] |
| > 9.30 | N#CC1(CNc2cccc(-c3cc(N[C@H]4CC[C@H](N[C@H]5CCOC5)CC4)ncc3Cl)n2)CCOCC1 [Compound 469, 4-(((5′-chloro-2′-((trans-4-(((S)-tetrahydrofuran-3-yl)amino)cyclohexyl)amino)-[2,4′-bipyridin]-6-yl)amino)methyl)tetrahydro-2H-pyran-4-carbonitrile] |
